Source: patent US20130274270A1, “POLYMORPHS OF 3-CHLORO-4[(2R)-2-(4-CHLOROPHENYL)-4-[(1R)-1-(4-CYANOPHENYL)ETHYL]-1-PIPERAZINYL]-BENZONITRILE, PHARMACEUTICAL COMPOSITIONS AND METHOD OF USE COMPRISING SAID POLYMORPHS, AND A PROCESS FOR PREPARING THEM” (priority 2010, published 2013)
Counter-ions that a name gives are not always drawn. Each block holds one molecule with its values, some of them ahead of it.

How the values were obtained:
Assay type in all cases: physicochemical
Photosensitivity = conditions: especially in solution
[1] = Solvent-mediated polymorphic transformation experiments (slurry / slow evaporation, PXRD)
Experimental: Solvent-mediated polymorphic transformation experiments were conducted by combining approximately 100 mg of starting material with 1 milliliter of solvent in a 4 mL amber glass vial. A polytetrafluoroethylene coated magnetic stir bar was added to each vial. For suspensions, the vials were sealed with polytetrafluoroethylene-lined caps and stirred using magnetic stir plates at 4° C., room temperature, or 50° C. for 14 days. For solutions, the vials were covered with aluminum foil and the solutions were slowly evaporated for 14 days. Solids were collected and analyzed for changes in crystal form. For this work, both slurry and evaporative crystallization was performed. Slurry experiments are utilized to identify the thermodynamically stable form while evaporative crystallizations favor the identification of metastable forms.

[2] = Competition slurry experiments
Experimental: Competition slurry experiments were conducted by combining approximately 100 milligrams of starting material with 1 milliliter of solvent in a 4 milliliter amber glass vial. A polytetrafluoroethylene coated magnetic stir bar was added to each vial. The slurry sample was stirred for one day and checked to confirm solids were still present. The sample was then seeded with forms identified during the polymorph screening and continued stirring at room temperature for 9 days. Solids were collected and analyzed to determine their crystal form.
The evaporative crystallization experiments from solutions produced another polymorph, termed Form II, and two suspected solvates or hydrates. Competition slurries were prepared with Form I, Form II and the suspected solvates or hydrates to confirm they were metastable with respect to Form 1. The competition slurries were prepared by dispersing Form II in isopropanol, a water/methanol mixture at a water activity of 0.5, and water.
A variable-temperature competition slurry was repeated using Forms I and III by suspending approximately 100 mg of each form in 2 milliliters of isopropanol at 4° C., room temperature, 40° C., and 50° C. The slurries were allowed to stir for 11 days and checked by PXRD. […] Afterwards, the solutions were seeded with Form I and stirred for 1 day.

[3] = Thermogravimetric analysis (TGA)
Experimental: (§1) All powder X-ray diffraction (PXRD) data was collected using a Rigaku Miniflex instrument. Samples were analyzed on silicon zero background holders from 2 to 40 degrees two theta with a step size of 0.02 degrees two theta and a scan time of 0.6 seconds per step. Differential scanning calorimetry (DSC) data was collected using a Q100 DSC from TA Instruments. Samples were sealed in hermetic aluminum pans with two pinholes in the lid. All were analyzed under nitrogen purge. Vapor sorption analysis was performed using a SGA-100 from VTI Scientific Instruments. Thermogravimetric analysis (TGA) data was collected on a Q500 TGA from TA Instruments. Samples were analyzed in platinum pans under a nitrogen purge.

[4] = Vapor sorption analysis (change in crystal form as a function of moisture); conditions: 25° C.
Experimental: as §1
Change in crystal form as a function of moisture was evaluated by a SGA-100 vapor sorption instrument from VTI Scientific Instruments. Approximately 10 to 15 mg of material was exposed to a relative humidity range from 5% to 95% at 25° C. for 2 cycles.

[5] = Change in crystal form as a function of milling; conditions: ground for 5 seconds at 3800 rpm
Experimental: Change in crystal form as a function of milling was conducted by grinding 79.2 milligrams of material in a stainless steel liner with a stainless steel ball pestle using a high speed mixer and amalgamator. The material was ground for 5 seconds at 3800 rpm.

[6] = Change in crystal form as a function of pressure (Carver press); conditions: 13 mm die, approximately 4000 pounds, approximately 30 seconds
Experimental: Change in crystal form as a function of pressure was evaluated by pressing 86.0 mg of material in a 13 millimeter die at approximately 4000 pounds for approximately 30 seconds with a carver press.

[7] = Change in crystal form as a function of heating (DSC heating rates); conditions: DSC at 2° C., 10° C. and 20° C. per minute
Experimental: Change in crystal form as a function of heating was evaluated by analyzing samples of the material using the DSC at heating rates of 2, 10, and 20° C. per minute.

DSC, heat of fusion rule = conditions: monotropically related forms
Experimental: as §1

[8] = Temperature-solubility profile in isopropanol (Crystal 16)
Experimental: To further characterize Form III, temperature-solubility profiles were constructed for both Form I and III. Different amounts of each form were suspended in 1 milliliter of isopropanol to prepare solutions of varying concentrations. The experiments were conducted on Crystal 16 to generate a temperature-solubility profile. The suspensions were slowly heated from 20° C. to 75° C. at 0.1° C./min and then cooled to 0° C. at a rate of 0.1° C. /min. The stirring rate was 700 rpm during the entire experiment.

[9] = Acetonitrile, RT/Solution, slowly evaporated 14 days
[10] = Dichloromethane, RT/Solution, slowly evaporated 14 days
[11] = Isopropanol, RT/Suspension, stirred 14 days
[12] = Water, RT/Suspension, stirred 14 days
[13] = Water/Methanol, 4° C./Suspension, stirred 14 days
[14] = Water/Methanol, 50° C./Suspension, stirred 14 days
[15] = Water/Methanol, RT/Suspension, stirred 14 days

SMILES: C[C@H](c1ccc(C#N)cc1)N1CCN(c2ccc(C#N)cc2Cl)[C@H](c2ccc(Cl)cc2)C1 [Compound A, 3-Chloro-4[(2R)-2-(4-chlorophenyl)-4-[(1R)-1-(4-cyanophenyl)ethyl]-1-piperazinyl]-benzonitrile]
sensitivity to light (Photosensitivity): photosensitive

SMILES: C[C@H](c1ccc(C#N)cc1)N1CCN(c2ccc(C#N)cc2Cl)[C@H](c2ccc(Cl)cc2)C1 [Form I, 3-Chloro-4[(2R)-2-(4-chlorophenyl)-4-[(1R)-1-(4-cyanophenyl)ethyl]-1-piperazinyl]-benzonitrile]
PXRD Result [1, 9]: Form 2 | PXRD Result [1, 10]: Form 2 | PXRD Result [1, 11]: Form 1 | PXRD Result ([1]; Toluene, 50° C./Solution, 14 days): Amorphous | PXRD Result [1, 12]: Form 1 | PXRD Result [1, 13]: Form 1 | PXRD Result [1, 14]: Form 1 | PXRD Result [1, 15]: Form 1 | Thermodynamic stability indicated by slurry experiments ([1]; all slurry experiments except those in water, regardless of starting form, water activity or temperature): the most thermodynamically stable form | Thermodynamic stability by competition slurry experiments [2]: a stable form | decomposition temperature [3]: above 295 °C | weight loss (TGA) ([3]; at 204° C.): 0.6% | polymorphic form change after vapor sorption analysis (PXRD before and after) ([4]; 5% to 95% relative humidity): no polymorphic form change | moisture absorbed by weight ([4]; between 5% and 95% relative humidity, 2 cycles): 0.07% | change in crystal form after milling [5]: no significant change in the crystal form | change in crystal form after pressing [6]: no significant change in the crystal form | change in crystal form as a function of heating rate [7]: no change in the crystal form | relative thermodynamic stability of Form I and Form II (heat of fusion rule) (DSC, heat of fusion rule): the more thermodynamically stable

SMILES: C[C@H](c1ccc(C#N)cc1)N1CCN(c2ccc(C#N)cc2Cl)[C@H](c2ccc(Cl)cc2)C1 [Form II, 3-Chloro-4[(2R)-2-(4-chlorophenyl)-4-[(1R)-1-(4-cyanophenyl)ethyl]-1-piperazinyl]-benzonitrile]
PXRD Result [1, 9]: Form II | PXRD Result [1, 10]: Form II | PXRD Result [1, 11]: Form I | PXRD Result [1, 12]: Form II | PXRD Result [1, 13]: Form I | PXRD Result [1, 14]: Form I | PXRD Result [1, 15]: Form I | Crystal form of solids collected from competition slurry ([2]; Form II dispersed in isopropanol, seeded with the other forms, room temperature): consistent with Form I | Crystal form of solids collected from competition slurry ([2]; Form II dispersed in water, seeded, room temperature): stayed as Form II | Crystal form of solids collected from competition slurry ([2]; Form II dispersed in water/methanol mixture at a water activity of 0.5, seeded, room temperature): consistent with Form I | decomposition temperature [3]: 310 °C | weight loss (TGA) ([3]; at 226° C.): 0.6%

SMILES: C[C@H](c1ccc(C#N)cc1)N1CCN(c2ccc(C#N)cc2Cl)[C@H](c2ccc(Cl)cc2)C1 [Form III, 3-Chloro-4[(2R)-2-(4-chlorophenyl)-4-[(1R)-1-(4-cyanophenyl)ethyl]-1-piperazinyl]-benzonitrile]
Thermodynamic stability by competition slurry experiments [2]: the most stable form | PXRD result of variable-temperature competition slurry of Forms I and III ([2]; about 100 mg of each form in 2 mL isopropanol at 4° C., room temperature, 40° C. and 50° C., 11 days): Form III was formed under all conditions | PXRD result after seeding with Form I ([2]; isopropanol slurries seeded with Form I and stirred for 1 day): remained as Form III | decomposition temperature [3]: 312 °C | weight loss (TGA) ([3]; at 228° C.): 0.07% | thermodynamic stability from temperature-solubility profile ([8]; above 29.4° C.): the most thermodynamically stable anhydrous crystalline form | relative solubility ([8]; at temperatures greater than 29.4° C.): less soluble than Form I

sensitivity to light (Photosensitivity): photosensitive
SMILES: CC(c1ccc(C#N)cc1)N1CCN(c2ccc(C#N)cc2Cl)C(c2ccc(Cl)cc2)C1 (stereo not drawn) [Formula II]

SMILES: C[C@H](c1ccc(C#N)cc1)N1CCN(c2ccc(C#N)cc2Cl)[C@H](c2ccc(Cl)cc2)C1 [xinafoate salt]
weight loss (TGA) ([3]; at 146° C.): 0.2% | behaviour of the salt on melting (large weight loss at melt) ([3]; melt at 163.5° C.): disproportionates or decomposes with melting | weight loss (TGA) ([3]; starting from 161° C. and ending at 236° C.): 27.2%
